Measured values published in patent publication US20240239788A1, “SMALL MOLECULE INHIBITORS OF KRAS G12D MUTANT” (Merck Sharp & Dohme LLC, priority 2021, published 2024).
Like-named read-outs stand apart in the source and are kept apart here.

Assays:
[1] = target: KRAS protein containing G12D mutation (Homo sapiens (Human), UniProt P01116, G12D); test: SOS-catalyzed nucleotide exchange assay (GNE), TR-FRET; assay type: biochemical; conditions: biotinylated KRAS G12D, SOS and GTP, 60-minute incubation
Sequence of KRAS protein containing G12D mutation (P01116 other isoform, or with tags, fused parts or gaps G12D (already in the parent)): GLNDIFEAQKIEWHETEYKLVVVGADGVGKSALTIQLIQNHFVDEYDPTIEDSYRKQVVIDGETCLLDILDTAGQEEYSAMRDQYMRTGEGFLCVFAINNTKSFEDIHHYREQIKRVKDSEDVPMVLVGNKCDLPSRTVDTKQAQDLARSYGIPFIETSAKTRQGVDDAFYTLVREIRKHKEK
Procedure: Compounds are added to this complex and then after a 60-minute incubation time the mixture is treated with SOS and unlabeled GTP. Small molecule inhibitors stabilize the Bodipy-GDP complex whereas the untreated protein rapidly exchanges Bodipy-GDP for unlabeled GTP resulting in reduced TR-FRET signal.
This solution is referred to as biotinylated KRAS G12D stock solution.

[2] = test system: AsPC-1 cells containing homozygous KRAS-G12D activating mutation; test: Cellular phospho-ERK assay (Examples 1a-106); assay type: cell-based; conditions: AsPC-1 cells, 2 hours, ratio of p-Erk vs total Erk, read-out: IC50 (nM) pERK (Cell)
From the text: 5% CO? overnight. […] Assay plates were read on a EnVision Multimode Plate Reader (PerkinElmer) and the ratio of p-Erk vs total Erk in each well was used as the final readout.

SMILES | IC50 [1] [nM] | IC50 ([2]; Homo sapiens, ASPC1, 2 h) [nM] | IC50 [2] [nM]
CC[C@H]1[C@@H]2CC[C@@H](CN2)N1c1nc(OCC2(CN(C)C)CC2)nc2c(F)c(-c3cc(O)cc4ccccc34)c(F)cc12 [Example 9, 4-(2-((1-((dimethylamino)methyl)cyclopropyl)methoxy)-4-((1S,3S,4S)-3-ethyl-2,5-diazabicyclo[2.2.2]octan-2-yl)-6,8-difluoroquinazolin-7-yl)naphthalen-2-ol] | 1330 | 13600 | 
CC[C@@H]1[C@@H]2CC[C@@H](CN2)N1c1nc(OCC2(CN(C)C)CC2)nc2c(F)c(-c3cc(O)cc4ccccc34)c(F)cc12 [Example 10, 4-(2-((1-((dimethylamino)methyl)cyclopropyl)methoxy)-4-((1S,3R,4S)-3-ethyl-2,5-diazabicyclo[2,2,2]octan-2-yl)-6,8-difluoroquinazolin-7-yl)naphthalen-2-ol] | 2750 | 9830 | 
O=C(O)C1CC1COc1nc(N2CC3CCC(C2)N3)c2cc(F)c(-c3cc(O)cc4ccccc34)c(F)c2n1 (centres unmarked) [Example 13, 2-(((4-(3.8-diazabicyclo[3.2.1]octan-3-yl)-6,8-difluoro-7-(3-hydroxynaphthalen-1-yl)quinazolin-2-yl)oxy)methyl)cyclopropane-1-carboxylc acid] | 5880 |  | 50800
Oc1cc(-c2c(F)cc3c(N4CC5CCC(C4)N5)nc(N4CC5(CCCN5)C4)nc3c2F)c2ccccc2c1 [Example 14, 4-(4-(3.8-diazabicyclo[3.2.1]octan-3-yl)-6,8-difluoro-2-(2,5-diazaspiro[3.4]octan-2-yl)quinazolin-7-yl)naphthalen-2-ol] | 1570 | 24000 | 
NC(=O)C1(COc2nc(N3CC4CCC(C3)N4)c3cc(F)c(-c4cc(O)cc5ccccc45)c(F)c3n2)CNC1 [Example 15, 3-(((4-(3.8-diazabicyclo[3.2.1]octan-3-yl)-6,8-difluoro-7-(3-hydroxynaphthalen-1-yl)quinazolin-2-yl)oxy)methyl)azetidine-3-carboxamide] | 2140 | 50800 | 
CN(C)CC1(COc2nc(N3CC4CC(C)(O)C(C3)N4)c3cc(F)c(-c4cc(O)cc5ccccc45)c(F)c3n2)CC1 (centres unmarked) [Example 27, 3-(2-((1-((dimethylamino)meth-yl)cyclopro-pyl)methoxy)-6,8-difluoro-7-(3-hydroxynaphthalen-1-yl)quinazolin-4-yl)-6-methyl-3,8-diazabicyclo [3.2.1]octan-6-ol] | 496 | 22500 | 
CN(C)CC1(COc2nc(N3CC4CC(C#N)C(C3)N4)c3cc(F)c(-c4cc(O)cc5ccccc45)c(F)c3n2)CC1 (centres unmarked) [Example 28, 3-(2-((1-((dimethylamino)meth-yl)cyclopro-pyl)methoxy)-6,8-difluoro-7-(3-hydroxynaphthalen-1-yl)quinazolin-4-yl)-3,8-diazabicyclo[3.2.1]oc-tane-6-carbontrile] | 7450 | 50800 | 
CC1CC2CN(c3nc(OCC4(CN(C)C)CC4)nc4c(F)c(-c5cc(O)cc6ccccc56)c(F)cc34)CC1N2 (centres unmarked) [Example 29, 4-(2-((1-((dimethyl-amino)methyl)cyclopro-pyl)methoxy)-6,8-difluoro-4-(6-methyl-3,8-diazabicyclo[3.2.1]oc-tan-3-yl)quinazolin-7-yl)naphthalen-2-ol] | 705 | 11600 | 
CN(C)CC1(COc2nc(N3CC4NC(C3)C3CC43)c3cc(Cl)c(-c4cc(O)cc5ccccc45)c(F)c3n2)CC1 (centres unmarked) [Example 30, 4-(6-chloro-2-((1-((dimethylamino)meth-yl)cyclopropyl)meth-oxy)-8-fluoro-4-(7,9-diazatri-cyclo[3.3.1.02,4]nonan-7-yl)quinazolin-7-yl)naphthalen-2-ol] | 7610 | 30100 | 
COCC12CCC(CN(c3nc(OCC4(CN(C)C)CC4)nc4c(F)c(-c5cc(O)cc6ccccc56)c(Cl)cc34)C1)N2 (centres unmarked) [Example 37, 4-(6-chloro-2-((1-((dimethylamino)meth-yl)cyclopro-pyl)methoxy)-8-fluoro-4-(1-(methoxy-methyl)-3,8-diazabicyclo[3.2.1]oc-tan-3-yl)quinazolin-7-yl)naphthalen-2-ol] | 571 | 16700 | 
CC[C@@H]1N[C@H]2CC[C@@H]1N(c1nc(OCC3(CN(C)C)CC3)nc3c(F)c(-c4cc(O)cc5ccccc45)c(Cl)cc13)C2 [Example 40, 4-(6-chloro-2-((1-((dimethylamino)methyl)cyclopropyl)methoxy)-4-((1S,4S,6S)-6-ethyl-2,5-diazabicyclo[2.2.2]octan-2-yl)-8-fluoroquinazolin-7-yl)naphthalen-2-ol] | 689 | 22000 | 
CN(C)CC1(COc2nc(N3C[C@H]4N[C@@](C)(C[C@@H]4O)C3)c3cc(Cl)c(-c4cc(O)cc5ccccc45)c(F)c3n2)CC1 [Example 44, (1S,5R,6S)-3-(6-chloro-2-((1-((dimethylamino)methyl)cyclopropyl)methoxy)-8-fluoro-7-(3-hydroxynaphthalen-1-yl)quinazolin-4-yl)-1-methyl-3,8-diazabicyclo [3.2.1]octan-6-ol] | 1160 | 13900 | 
CN(C)CC1(COc2nc(N3CC4CCC(C3)N4)c3cc(Cl)c(-c4c5ccccc5cc5[nH]c(=O)[nH]c45)c(F)c3n2)CC1 [Example 46, 4-(4-(3,8-diazabicyclo[3.2.1]octan-3-yl)-6-chloro-2-((1-((dimethylamino)methyl)cyclopropyl)methoxy)-8-fluoroquinazolin-7-yl)-1,3-dihydro-2H-naphtho[2,3-d]imidazol-2-one] | 9340 | 50800 | 
CN(C)CC1(COc2nc(N3CC4CCC(C3)N4)c3cc(Cl)c(-c4cc(O)ccc4C45CC(C4)C5)c(F)c3n2)CC1 [Example 47, 3-(4-(3,8-diazabicyclo[3.2.1]octan-3-yl)-6-chloro-2-((1-((dimethylamino)methyl)cyclopropyl)methoxy)-8-fluoroquinazolin-7-yl)-4-(bicyclo[1.1.1]pentan-1-yl)phenol] | 551 | 5790 | 
Oc1ccc(SC(F)(F)F)c(-c2c(F)cc3c(N4CC5CCC(C4)N5)nc(OCC4(CN5CCOCC5)CC4)nc3c2F)c1 [Example 48, 3-(4-(3,8-diazabicyclo[3.2.1]octan-3-yl)-6,8-difluoro-2-((1-(morpholinomethyl)cyclopropyl)methoxy)quinazolin-7-yl)-4-((trifluoromethyl)thio)phenol] | 529 | 6120 | 
Fc1cc2c(N3CC4CCC(C3)N4)nc(OCC3(CN4CCOCC4)CC3)nc2c(F)c1-c1cccc2sncc12 [Example 50, 4-((1-(((7-(benzo[d]isothiazol-4-yl)-4-(3,8-diazabicyclo[3.2.1]octan-3-yl)-6,8-difluoroquinazolin-2-yl)oxy)methyl)cyclopropyl)methyl) morpholine] | 5180 | 20300 | 
CNc1nc2c(-c3c(Cl)cc4c(N5CC6CCC(C5)N6)nc(OCC5(CN6CCOCC6)CC5)nc4c3F)ccc(F)c2s1 [Example 51, 4-(4-(3,8-diazabicyclo[3.2.1]octan-3-yl)-6-chloro-8-fluoro-2-((1-(morpholinomethyl)cyclopropyl)methoxy)quinazolin-7-yl)-7-fluoro-N-methylbenzo[d]thiazol-2-amine] | 3930 | 11200 | 
Fc1c(-c2ccc(F)c3scnc23)c(Cl)cc2c(N3CC4CCC(C3)N4)nc(OCC3(CN4CCOCC4)CC3)nc12 [Example 53, 4-((1-(((4-(3,8-diazabicyclo[3.2.1]octan-3-yl)-6-chloro-8-fluoro-7-(7-fluorobenzo[d]thiazol-4-yl)quinazolin-2-yl)oxy)methyl)cyclopropyl)methyl) morpholine] | 2780 | 11000 | 
Nc1nc2c(F)ccc(-c3c(Cl)cc4c(N5CC6CCC(C5)N6)nc(OCC5(CN6CCOCC6)CC5)nc4c3F)c2s1 [Example 54, 7-(4-(3,8-diazabicyclo[3.2.1]octan-3-yl)-6-chloro-8-fluoro-2-((1-(morpholinomethyl)cyclopropyl)methoxy)quinazolin-7-yl)-4-fluorobenzo[d]thiazol-2-amine] | 2650 | 14100 | 
CN(C)CC1(COc2nc(N3CC4CCC(C3)N4)c3cc(Cl)c(-c4c(Cl)c(F)cc5[nH]ncc45)c(F)c3n2)CC1 [Example 55, 1-(1-(((4-(3,8-diazabicyclo[3.2.1]octan-3-yl)-6-chloro-7-(5-chloro-6-fluoro-1H-indazol-4-yl)-8-fluoroquinazolin-2-yl)oxy)methyl)cyclopropyl)-N,N-dimethylmethanamine] | 969 | 7060 | 
CN(C)CC1(COc2nc(N3CC4CCC(C3)N4)c3cc(Cl)c(-c4cc(C(F)(F)F)cc5[nH]ncc45)c(F)c3n2)CC1 [Example 56, 1-(1-(((4-(3,8-diazabicyclo[3.2.1]octan-3-yl)-6-chloro-8-fluoro-7-(6-(trifluoromethyl)-1H-indazol-4-yl)quinazolin-2-yl)oxy)methyl)cyclopropyl)-N,N-dimethylmethanamine] | 4030 | 6920 | 
Nc1nc2c(-c3c(Cl)cc4c(N5CC6CCC(C5)N6)nc(OCC5(CN6CCOCC6)CC5)nc4c3F)cccc2o1 [Example 59, 4-(4-(3,8-diazabicyclo[3.2.1]octan-3-yl)-6-chloro-8-fluoro-2-((1-(morpholinomethyl)cyclopropyl)methoxy)quinazolin-7-yl)benzo[d]oxazol-2-amine] | 20.1 | 2210 | 
